Measured values as given in patent US4429127A, “Quinoline carboxylic acid derivative” (Kyorin Pharmaceutical Co., Ltd., priority 1981, dated 1984).
In brackets after ≈: the same amount, converted by molar mass. Read-outs that look alike come from different tables or passages of the source.

Experiments:
Shigella sonnei IID969 = experiment: In vitro antibacterial activity (MIC, agar dilution); format: cell-based; conditions: inoculum 10^8 cells/ml
Protocol: (§1) The minimum inhibitory concentration (MIC) of the compound (I) was determined by an agar dilution technique (the standard method of Japan Society of Chemotherapy) against standard strains of gram-positive and gram-negative bacteria.
(§2) Inoculum size: 10^8 cells/ml

[1] = test system: Salmonella enteritidis IID604; experiment: as above; format: cell-based; conditions: Salmonella enterica
Protocol: as §1, §2

[2] = test system: S. aureus IID670 (Terajima); experiment: as above; format: cell-based; conditions: Staphylococcus aureus
Protocol: as §1, §2

E. coli ATCC10536 = experiment: as above; format: cell-based; conditions: Escherichia coli
Protocol: as §1, §2

[3] = test system: Haemophilus influenzae IID986; experiment: as above; format: cell-based
Protocol: as §1, §2

[4] = test system: Streptococcus pyogenes IID692; experiment: as above; format: cell-based
Protocol: as §1, §2

S. pneumoniae IID552 = experiment: as above; format: cell-based; conditions: Streptococcus pneumoniae
Protocol: as §1, §2

[5] = test system: Pseudomonas aeruginosa V-1; experiment: as above; format: cell-based; conditions: V1
Protocol: as §1, §2

E. coli NIHJ JC-2 = experiment: as above; format: cell-based; conditions: Escherichia coli, NIHJJC2
Protocol: as §1, §2

S. pyogenes S-8 = experiment: as above; format: cell-based; conditions: Streptococcus pyogenes, S8
Protocol: as §1, §2

[6] = test system: Staphylococcus aureus 209P; experiment: as above; format: cell-based
Protocol: as §1, §2

[7] = test system: Klebsiella pneumoniae IFO3512; experiment: as above; format: cell-based
Protocol: as §1, §2

S. faecalis IID682 = experiment: as above; format: cell-based; conditions: Enterococcus faecalis
Protocol: as §1, §2

P. aeruginosa IFO12689 = experiment: as above; format: cell-based; conditions: Pseudomonas aeruginosa
Protocol: as §1, §2

[8] = test system: Bacillus subtilis PCI 219; experiment: as above; format: cell-based; conditions: PCI219
Protocol: as §1, §2

Proteus vulgaris IFO3167 = experiment: as above; format: cell-based
Protocol: as §1, §2

E. coli ML4707 [9] = experiment: MIC against the infecting strain (Table 2); format: cell-based; conditions: Escherichia coli, ML4707
Protocol: as §1

[10] = test system: Staphylococcus aureus Smith; experiment: MIC against the infecting strain (Table 2); format: cell-based
Protocol: as §1

gram-positive bacteria [11] = conditions: background; cited from earlier work
gram-positive bacteria [12] = experiment: In vitro antibacterial activity against gram-positive bacteria (in words); format: cell-based
Protocol: as §1

Streptococcus spp. = experiment: In vitro antibacterial activity against Streptococcus spp. (in words); format: cell-based
Protocol: as §1

E. coli ML4707 [13] = experiment: In vivo antibacterial activity, systemic infection in mice; set-up: species or system mice (male, ICR); conditions: Escherichia coli
Protocol: (§3) The in vivo antibacterial activity of the compound (I) was determined in systemic infection in mice. The systemic infections were produced in male mice ICR (body weight, 19±2 g) by inoculating intraperitoneally with Staphylococcus aureus Smith and E. coli ML4707. The compounds were administered orally in divided doses at 0 and 4 hrs. after infection. The therapeutic effect of drugs was judged from the number of mice surviving after 7 days of observation. A comparison of in vivo antibacterial activity was made on the basis of the […] effective dose (ED50) calculated by the method of Litchfield and Wilcoxon.

[14] = test system: Staphylococcus aureus Smith; experiment: as above; set-up: species or system mice (male, ICR); conditions: Staphylococcus aureus, 168 h
Protocol: as §3

gram-negative bacteria [15] = conditions: background; cited from earlier work
gram-negative bacteria [16] = experiment: In vitro antibacterial activity against gram-negative bacteria (in words); format: cell-based; conditions: for Antibacterial activity on gram-negative bacteria, in words: in vitro
Protocol: as §1

[17] = test system: Yersinia enterocolitica IID981; experiment: In vitro antibacterial activity (MIC, agar dilution); format: cell-based; conditions: inoculum 10^8 cells/ml
Protocol: as §1, §2

[18] = test system: Enterobacter cloacae IID977; experiment: as above; format: cell-based; conditions: inoculum 10^8 cells/ml
Protocol: as §1, §2

P. mirabilis IID994 = experiment: as above; format: cell-based; conditions: Proteus mirabilis, inoculum 10^8 cells/ml
Protocol: as §1, §2

[19] = test system: Alcaligenes faecalis 0104002; experiment: as above; format: cell-based; conditions: inoculum 10^8 cells/ml
Protocol: as §1, §2

[20] = test system: Serratia marcescens IID618; experiment: as above; format: cell-based; conditions: inoculum 10^8 cells/ml
Protocol: as §1, §2

[21] = test system: Acinetobacter enitratus IID876; experiment: as above; format: cell-based; conditions: inoculum 10^8 cells/ml
Protocol: as §1, §2

[22] = test system: Citrobacter freundii IID976; experiment: as above; format: cell-based; conditions: inoculum 10^8 cells/ml
Protocol: as §1, §2

S. epidermidis IID866 = experiment: as above; format: cell-based; conditions: Staphylococcus epidermidis, inoculum 10^8 cells/ml
Protocol: as §1, §2

P. morganii IID602 = experiment: as above; format: cell-based; conditions: Morganella morganii, inoculum 10^8 cells/ml
Protocol: as §1, §2

[23] = Salmonella enteritidis IID604, inoculum 10^8 cells/ml, read-out: MIC
[24] = S. aureus IID670 (Terajima), inoculum 10^8 cells/ml, read-out: MIC
[25] = Streptococcus pyogenes IID692, inoculum 10^8 cells/ml, read-out: MIC
[26] = S. pneumoniae IID552, inoculum 10^8 cells/ml, read-out: MIC
[27] = Pseudomonas aeruginosa V-1, inoculum 10^8 cells/ml, read-out: MIC
[28] = S. pyogenes S-8, inoculum 10^8 cells/ml, read-out: MIC
[29] = Staphylococcus aureus 209P, inoculum 10^8 cells/ml, read-out: MIC
[30] = S. faecalis IID682, inoculum 10^8 cells/ml, read-out: MIC
[31] = P. aeruginosa IFO12689, inoculum 10^8 cells/ml, read-out: MIC
[32] = Bacillus subtilis PCI 219, inoculum 10^8 cells/ml, read-out: MIC
[33] = Proteus vulgaris IFO3167, inoculum 10^8 cells/ml, read-out: MIC

| SMILES | MIC (Shigella sonnei IID969) [µg/mL] | MIC (E. coli ATCC10536; ATCC10536) [µg/mL] | MIC ([3]; Haemophilus influenzae, IID986) [µg/mL] | MIC (E. coli NIHJ JC-2) [µg/mL] | MIC ([7]; Klebsiella pneumoniae, IFO3512) [µg/mL] | MIC (E. coli ML4707 [9]) [µg/mL] | Activity against most gram-positive bacteria, in words (gram-positive bacteria [11]) | Antibacterial activity on gram-positive bacteria, in words (gram-positive bacteria [12]) | Susceptibility of Streptococcus spp., in words (Streptococcus spp.) | Effectiveness in therapy of infections due to gram-negative bacteria, in words (gram-negative bacteria [15]) | Antibacterial activity on gram-negative bacteria, in words (gram-negative bacteria [16]) | MIC [1, 23] [µg/mL] | MIC [2, 24] [µg/mL] | MIC [4, 25] [µg/mL] | MIC (S. pneumoniae IID552; [26]) [µg/mL] | MIC [5, 27] [µg/mL] | MIC (S. pyogenes S-8; [28]) [µg/mL] | MIC [6, 29] [µg/mL] | MIC (S. faecalis IID682; [30]) [µg/mL] | MIC (P. aeruginosa IFO12689; [31]) [µg/mL] | other results |
| --- | --- | --- | --- | --- | --- | --- | --- | --- | --- | --- | --- | --- | --- | --- | --- | --- | --- | --- | --- | --- | --- |
| CCn1cc(C(=O)O)c(=O)c2ccc(C)nc21 [NA, Nalidixic acid] | 1.56 (≈ 6.72 µM) | 3.13 (≈ 13.5 µM) | 1.56 (≈ 6.72 µM) | 3.13 (≈ 13.5 µM) | 1.56 (≈ 6.72 µM) | 3.13 (≈ 13.5 µM) | only weak activities against most gram-positive bacteria | inactive on many strains of gram-positive bacteria | not susceptible | highly effective in the therapy of infections due to gram-negative bacteria | exerted antibacterial activity mainly on gram-negative bacteria |  |  |  |  |  |  |  |  |  | MIC [1]: 12.5 µg/mL (≈ 53.8 µM); MIC ([2]; IID670): > 100 µg/mL; MIC ([4]; Streptococcus pyogenes, IID692): > 100 µg/mL; MIC (S. pneumoniae IID552; IID552): > 100 µg/mL; MIC ([5]; Pseudomonas aeruginosa): 100 µg/mL (≈ 431 µM); MIC (S. pyogenes S-8): > 100 µg/mL; MIC ([6]; Staphylococcus aureus, 209P): 100 µg/mL (≈ 431 µM); MIC (S. faecalis IID682; IID682): > 100 µg/mL; MIC (P. aeruginosa IFO12689; IFO12689): > 100 µg/mL; MIC ([8]; Bacillus subtilis): 6.25 µg/mL (≈ 26.9 µM); MIC (Proteus vulgaris IFO3167; Proteus vulgaris, IFO3167): 3.13 µg/mL (≈ 13.5 µM); MIC ([10]; Staphylococcus aureus): 25 µg/mL (≈ 108 µM); ED50 (E. coli ML4707 [13]; ML4707, po, 168 h): 38.3 mg/kg; ED50 ([14]; po): 635 mg/kg |
| CCn1cc(C(=O)O)c(=O)c2cc(F)c(N3CCNCC3)c(F)c21 [Metabolite, 1-ethyl-6,8-difluoro-1,4-dihydro-4-oxo-7-(1-piperazinyl)quinoline-3-carboxylic acid] | 0.05 (≈ 0.148 µM) |  | 0.025 (≈ 0.0741 µM) |  |  |  |  |  |  |  |  | 0.1 (≈ 0.296 µM) | 0.78 (≈ 2.31 µM) | 3.13 (≈ 9.28 µM) | 6.25 (≈ 18.5 µM) | 0.78 (≈ 2.31 µM) | 12.5 (≈ 37.1 µM) | 0.78 (≈ 2.31 µM) | 3.13 (≈ 9.28 µM) | 1.56 (≈ 4.62 µM) | MIC [17]: 0.1 µg/mL (≈ 0.296 µM); MIC [18]: 0.1 µg/mL (≈ 0.296 µM); MIC (P. mirabilis IID994): 0.05 µg/mL (≈ 0.148 µM); MIC [19]: 0.78 µg/mL (≈ 2.31 µM); MIC [20]: 0.1 µg/mL (≈ 0.296 µM); MIC (E. coli ATCC10536; E. coli ATCC10536, inoculum 10^8 cells/ml, read-out: MIC): 0.05 µg/mL (≈ 0.148 µM); MIC [21]: 0.78 µg/mL (≈ 2.31 µM); MIC [22]: 0.1 µg/mL (≈ 0.296 µM); MIC (E. coli NIHJ JC-2; E. coli NIHJ JC-2, inoculum 10^8 cells/ml, read-out: MIC): 0.05 µg/mL (≈ 0.148 µM); MIC (S. epidermidis IID866): 0.78 µg/mL (≈ 2.31 µM); MIC ([7]; Klebsiella pneumoniae IFO3512, inoculum 10^8 cells/ml, read-out: MIC): 0.05 µg/mL (≈ 0.148 µM); MIC (P. morganii IID602): 0.1 µg/mL (≈ 0.296 µM); MIC [8, 32]: 0.2 µg/mL (≈ 0.593 µM); MIC (Proteus vulgaris IFO3167; [33]): 0.05 µg/mL (≈ 0.148 µM); Activity of the metabolite against gram-negative bacteria, in words (gram-negative bacteria [16]; general statement): superior activity against gram-negative bacteria |
| CCn1cc(C(=O)O)c(=O)c2cnc(N3CCNCC3)nc21 [PPA, Pipemidic acid] | 1.56 (≈ 5.14 µM) | 1.56 (≈ 5.14 µM) |  | 1.56 (≈ 5.14 µM) | 1.56 (≈ 5.14 µM) | 1.56 (≈ 5.14 µM) | only weak activities against most gram-positive bacteria | inactive on many strains of gram-positive bacteria | not susceptible | highly effective in the therapy of infections due to gram-negative bacteria | exerted antibacterial activity mainly on gram-negative bacteria | 12.5 (≈ 41.2 µM) | 25 (≈ 82.4 µM) | > 100 | > 100 | 12.5 (≈ 41.2 µM) | > 100 | 25 (≈ 82.4 µM) | > 100 | 25 (≈ 82.4 µM) | MIC ([3]; Haemophilus influenzae IID986, inoculum 10^8 cells/ml, read-out: MIC): 3.13 µg/mL (≈ 10.3 µM); MIC [8, 32]: 6.25 µg/mL (≈ 20.6 µM); MIC (Proteus vulgaris IFO3167; [33]): 3.13 µg/mL (≈ 10.3 µM); MIC ([10]; Staphylococcus aureus Smith, read-out: MIC): 12.5 µg/mL (≈ 41.2 µM); ED50 (E. coli ML4707 [13]; ML4707, 168 h, mice, oral at 0 and 4 hrs. after infection, challenge 1.2 × 10^7 cells/animal in saline, 7 days survival, read-out: ED50): 38.9 mg/kg; ED50 ([14]; mice, oral at 0 and 4 hrs. after infection, challenge 2.4 × 10^5 cells/animal in BHI containing mucin, 7 days survival, read-out: ED50): 231 mg/kg |
| CCn1cc(C(=O)O)c(=O)c2cnc(N3CCCC3)nc21 [piromidic acid] |  |  |  |  |  |  | only weak activities against most gram-positive bacteria |  |  | highly effective in the therapy of infections due to gram-negative bacteria |  |  |  |  |  |  |  |  |  |  |  |
